Measured values taken from US9096536B2, “Asymmetrically substituted anthrapyridazone derivatives as cytostatics” (BS-154 S.P. ZO.O., priority 2011, dated 2015).
Like-named read-outs stand apart in the source and are kept apart here.

Experiments:
[1] = tested on: human promyelocytic leukemia cell line HL-60; assay: Cytostatic activity in vitro, HL-60 sensitive line; assay type: cell-based; conditions: read-out: HL60 IC50
From the text: (§1) Tables 3 and 4 show cytostatic activity in vitro of 2,6-disubstituted and 2- or 6-monosubstituted (Tab.3), and of 2,5-disubstituted-(Tab.-4) tetracyclic anthrapyridazone derivatives using leukemia cell line HL-60 and the resistant cell sublines with resistance induced by vincristine (MDR-1) or doxorubicin (MRP). Activity of compounds is differentiated depending on their structure, but in all cases resistance indexes are more advantageous in comparison with reference compounds: doxorubicin and mitoxantrone.

HL60/VINC = assay: Cytostatic activity in vitro, vincristine-induced resistant subline (MDR-1); assay type: cell-based, human; conditions: for RI resistance index HL60/VINC / RI resistance index HL60VINC: IC50(resistant cells)/IC50(sensitive cells); for RI resistance index HL60/VINC: HL60/VINC vs HL60, 72 h; for RI resistance index HL60VINC: 96 h
From the text: as §1

HL60/DX = assay: Cytostatic activity in vitro, doxorubicin-induced resistant subline (MRP); assay type: cell-based, human; conditions: for RI resistance index HL60/DX: IC50(resistant cells)/IC50(sensitive cells)
From the text: as §1

[2] = tested on: human prostate cancer cell line DU145; assay: Cytostatic activity in vitro, prostate cancer DU145; assay type: cell-based; conditions: 72 h continuous exposure
From the text: (§2) Table 5 presents activity in vitro of anthrapiridazone derivatives towards three cell lines of prostate cancer, naturally multidrug resistant, in comparison with references doxorubicin, mitoxantrone and taxol.

[3] = tested on: human prostate cancer cell line LNCaP; assay: Cytostatic activity in vitro, prostate cancer LNCaP; assay type: cell-based; conditions: 72 h continuous exposure
From the text: as §2

[4] = tested on: human prostate cancer cell line PC3; assay: Cytostatic activity in vitro, prostate cancer PC3; assay type: cell-based; conditions: 72 h continuous exposure
From the text: as §2

CT-DNA = assay: Interaction with isolated CT-DNA, fluorescence competition with ethidium bromide; assay type: binding; conditions: for IC50: 50% decrease in fluorescence intensity of DNA-bromide ethydine complex; for Kapp relative constant of DNA-compound bonding: Kapp = (1.26/C50) × KEtBr, KEtBr = 10^7M
From the text: It could be supposed that this property explains cytostatic activity of compounds. In Table 9 there are presented quantitative data on the affinity to DNA of tested compounds using the fluorescence method and competitive affinity to DNA of bromine ethydine and tested compounds.

[5] = 50% inhibition of cell growth after 72 h continuous exposure
[6] = 96 h continuous exposure, read-out: HL60VINC IC50

SMILES | IC50 [1, 5] | IC50 (HL60/VINC; 72 h continuous exposure) | RI resistance index HL60/VINC (HL60/VINC) | IC50 (HL60/DX; 72 h continuous exposure) | RI resistance index HL60/DX (HL60/DX; HL60/DX vs HL60, 72 h) | IC50 [2] | IC50 [3] | IC50 [4] | IC50 (CT-DNA) | Kapp relative constant of DNA-compound bonding (CT-DNA) | IC50 ([1]; 96 h continuous exposure) | IC50 (HL60/VINC; [6]) | RI resistance index HL60VINC (HL60/VINC) | IC50 (HL60/DX; 96 h continuous exposure) | RI resistance index HL60/DX (HL60/DX; 96 h) | IC50 ([2]; Homo sapiens, DU-145) | IC50 ([3]; Homo sapiens, LNCaP) | IC50 ([4]; Homo sapiens)
CCCCNCCNc1ccc2c(=O)[nH]nc3c2c1C(=O)c1ccccc1-3 [PDZ-9, 6-(2-Butylaminoethylamino)-2,7-dihydro-3H-dibenzo[de,h]cynnoline-3,7-dione] | 0.311 ± 0.054 µM | 0.574 ± 0.012 µM | 1.8 | 1.18 ± 0.094 µM | 3.8 | 0.558 ± 0.129 µM | 0.427 ± 0.08 µM | 1.25 ± 0.206 µM | 2.1 ± 0.1 µM | 6e+06 M⁻¹ | – | – | – | – | – | – | – | –
CN(C)CCn1nc2c3c(cccc3c1=O)C(=O)c1ccccc1-2 [PDZ-15, 2-[2-(Dimethylamino)ethyl]-2,7-dihydro-3H-dibenzo[de,h]cynnoline-3,7-dione] | 0.213 ± 0.064 µM | 0.489 ± 0.068 µM | 2.3 | 3.06 ± 0.992 µM | 14.4 | 0.462 ± 0.052 µM | 0.323 ± 0.034 µM | 0.963 ± 0.171 µM | 3.08 ± 0.19 µM | 4.1e+06 M⁻¹ | – | – | – | – | – | – | – | –
CC(=O)[C@]1(O)Cc2c(O)c3c(c(O)c2[C@@H](O[C@H]2C[C@H](N)[C@H](O)[C@H](C)O2)C1)C(=O)c1ccccc1C3=O [Idarubicin, reference compound] | – | – | – | – | – | – | – | – | 0.5 ± 0.06 µM | 2.5e+07 M⁻¹ | – | – | – | – | – | – | – | –
CN(C)CCn1nc2c3ccccc3c3nn(CCN(C)C)c4ccc(c1=O)c2c34 [Compound C-163, Bis-2,6-[2-(dimethylamino)ethyl]-2,6-dihydro-5H-benzo[h]indazolo[5,4,3-def]cynnoline-5-one] | 0.031 ± 0.006 µM | 0.048 ± 0.007 µM | 1.5 | 0.33 ± 0.017 µM | 10.6 | 0.0218 ± 0.0047 µM | 0.0282 ± 0.0074 µM | 0.122 ± 0.0276 µM | 0.23 ± 0.01 µM | 5.57e+07 M⁻¹ | – | – | – | – | – | – | – | –
CN(C)CCn1nc2c3c(c(NCCNCCO)ccc3c1=O)C(=O)c1ccccc1-2 [Compound C-165, 2-[2-(Dimethylamino)ethyl]-6-[2-(2-aminoethylamino)ethanolo]-2,7-dihydro-3H-dibenzo[de,h]cynnoline-3,7-dione] | 0.0021 ± 0.0004 µM | 0.0308 ± 0.004 µM | 14.7 | 0.706 ± 0.057 µM | 336.2 | 0.0143 ± 0.0033 µM | 0.0081 ± 0.001 µM | 0.0516 ± 0.0124 µM | 0.37 ± 0.08 µM | 3.44e+07 M⁻¹ | – | – | – | – | – | – | – | –
CN(C)CCn1nc2c3c(c(NCCCN)ccc3c1=O)C(=O)c1ccccc1-2 [PDZ-20, 2-[2-(Dimethylamino)ethyl]-6-[(3-aminopropyl)amino]-2,7-dihydro-3H-dibenzo [de,h]cynnoline-3,7-dione] | 0.0086 ± 0.0009 µM | 0.0822 ± 0.0061 µM | 9.6 | 2.6 ± 0.436 µM | 302.2 | 0.0473 ± 0.0115 µM | 0.0314 ± 0.0046 µM | 0.245 ± 0.036 µM | 0.22 ± 0.06 µM | 5.79e+07 M⁻¹ | – | – | – | – | – | – | – | –
CN(C)CCCn1nc2c3c(c(N)ccc3c1=O)C(=O)c1ccccc1-2 [PDZ-3, 2-[3-(Dimethylamino)propyl]-6-amino-2,7-dihydro-3H-dibenzo[de,h]cynnoline-3,7-dione] | 0.269 ± 0.041 µM | 0.509 ± 0.054 µM | 1.9 | 0.919 ± 0.089 µM | 3.4 | 0.725 ± 0.121 µM | 0.549 ± 0.085 µM | 0.709 ± 0.163 µM | 1.76 ± 0.12 µM | 7.1e+06 M⁻¹ | – | – | – | – | – | – | – | –
CN(C)CCNc1ccc2c(=O)n(CCO)nc3c2c1C(=O)c1ccccc1-3 [Compound C-167, 2-(2-Hydroxyethyl)-6-(2-dimethylamino)ethylamino-2H-dibenzo[de,h]cynnoline-3,7-dione] | 0.111 ± 0.027 µM | 0.393 ± 0.045 µM | 3.5 | 1.24 ± 0.206 µM | 11.1 | 0.294 ± 0.053 µM | 0.202 ± 0.035 µM | 0.776 ± 0.045 µM | 2.04 ± 0.07 µM | 6.2e+06 M⁻¹ | – | – | – | – | – | – | – | –
CNc1ccc2c(=O)n(CCN(C)C)nc3c2c1C(=O)c1ccccc1-3 [PDZ-7, 2-[2-(Dimethylamino)ethyl]-6-(N-methylamino)-2,7-dihydro-3H-dibenzo[de,h]cynnoline-3,7-dione] | 0.021 ± 0.001 µM | 0.043 ± 0.002 µM | 2.0 | 0.62 ± 0.062 µM | 29.5 | 0.0286 ± 0.0028 µM | 0.0654 ± 0.0074 µM | 0.0805 ± 0.012 µM | 1.85 ± 0.16 µM | 6.8e+06 M⁻¹ | – | – | – | – | – | – | – | –
CN(C)CCn1nc2c3c(cc(NCCNCc4ccccc4)cc3c1=O)C(=O)c1ccccc1-2 [Compound C-171, 2-[2-(Dimethylamino)ethyl]-5-[(2-benzylamino)ethylamino]-2,7-dihydro-3H-dibenzo[de,h]cynnolino-3,7-dion] | – | – | – | – | – | – | – | – | – | – | 0.398 ± 0.025 µM | 0.375 ± 0.018 µM | 0.9 | 0.564 ± 0.034 µM | 1.4 | – | – | –
O=C1c2ccccc2-c2nn(CCN3CCCCC3)c(=O)c3ccc(NCCNCc4ccccc4)c1c23 [PDZ-17, 2-[2-(Piperidinamino)ethyl]-6-(2-benzylaminoethylamino)-2,7-dihydro-3H-dibenzo [de,h]cynnoline-3,7-dione] | 0.098 ± 0.019 µM | 0.477 ± 0.039 µM | 4.9 | 2.87 ± 0.447 µM | 29.3 | 0.344 ± 0.043 µM | 0.166 ± 0.04 µM | 0.606 ± 0.038 µM | 0.46 ± 0.08 µM | 2.72e+07 M⁻¹ | – | – | – | – | – | – | – | –
CC(=O)Nc1ccc2c(=O)n(CCN(C)C)nc3c2c1C(=O)c1ccccc1-3 [PDZ-14, 2-[2-(Dimethylamino)ethyl]-6-(acetylamino)-2,7-dihydro-3H-dibenzo[de,h]cynnoline-3,7-dione] | 0.028 ± 0.006 µM | 0.079 ± 0.007 µM | 2.8 | 0.87 ± 0.173 µM | 31.1 | 0.0328 ± 0.0014 µM | 0.0448 ± 0.0056 µM | 0.0855 ± 0.0101 µM | 0.99 ± 0.01 µM | 1.27e+07 M⁻¹ | – | – | – | – | – | – | – | –
Nc1ccc2c(=O)n(CCN3CCOCC3)nc3c2c1C(=O)c1ccccc1-3 [PDZ-4, 2-(2-Morpholinethyl)-6-amino-2,7-dihydro-3H-dibenzo[de,h]cynnoline-3,7-dione] | 2.08 ± 0.169 µM | 2.55 ± 0.286 µM | 1.2 | 4.71 ± 0.389 µM | 2.3 | 3.27 ± 0.355 µM | 2.79 ± 0.276 µM | 5.11 ± 0.206 µM | 16.8 ± 0.41 µM | 700000 M⁻¹ | – | – | – | – | – | – | – | –
CN(C)CCn1nc2c3c(cc(NCCN)cc3c1=O)C(=O)c1ccccc1-2 [Compound C-170, 2-[2-(Dimethylamino)ethyl]-5-(2-aminoetyloamino)-2,7-dihydro-3H-dibenzo[de,h]cynnoline-3,7-dione] | – | – | – | – | – | – | – | – | – | – | 0.0082 ± 0.001 µM | 0.21 ± 0.052 µM | 25.6 | 0.753 ± 0.029 µM | 91.9 | – | – | –
CN(C)CCn1nc2c3c(c(NCc4ccccc4)ccc3c1=O)C(=O)c1ccccc1-2 [PDZ-8, 2-[2-(Dimethylamino)ethyl]-6-(N-benzylamino)-2,7-dihydro-3H-dibenzo[de,h]cynnoline-3,7-dione] | 0.719 ± 0.027 µM | 0.85 ± 0.093 µM | 1.2 | 4.8 ± 1.33 µM | 6.7 | 1.22 ± 0.142 µM | 0.683 ± 0.017 µM | 1.71 ± 0.125 µM | 7.29 ± 0.28 µM | 1.7e+06 M⁻¹ | – | – | – | – | – | – | – | –
CN(C)CCCNc1ccc2c(=O)[nH]nc3c2c1C(=O)c1ccccc1-3 [Compound C-131, 6-[(3-Dimethylamino)propyl]amino-3H-dibenzo[de,h]cynnoline-3,7-dione] | 1.15 ± 0.244 µM | 1.01 ± 0.051 µM | 0.9 | 4.47 ± 0.428 µM | 3.9 | 1.48 ± 0.127 µM | 0.927 ± 0.092 µM | 2.83 ± 0.234 µM | 1.63 ± 0.12 µM | 7.7e+06 M⁻¹ | – | – | – | – | – | – | – | –
CN(C)CCn1nc2c3c(c(NCC(=O)N(C)C)ccc3c1=O)C(=O)c1ccccc1-2 [PDZ-12, 2-[2-(Dimethylamino)ethyl]-6-[(N,N-dimethylacetamido)amino]-2,7-dihydro-3H-dibenzo[de,h]cynnoline-3,7-dione] | 0.113 ± 0.007 µM | 0.947 ± 0.111 µM | 8.4 | 2.68 ± 0.768 µM | 23.7 | 0.169 ± 0.047 µM | 0.237 ± 0.045 µM | 0.947 ± 0.037 µM | 2.64 ± 0.29 µM | 4.8e+06 M⁻¹ | – | – | – | – | – | – | – | –
CC(=O)O[C@H]1C(=O)[C@@]2(C)[C@H]([C@H](OC(=O)c3ccccc3)[C@]3(O)C[C@H](OC(=O)[C@H](O)[C@@H](NC(=O)c4ccccc4)c4ccccc4)C(C)=C1C3(C)C)[C@]1(OC(C)=O)CO[C@@H]1C[C@@H]2O [Taxol, reference compound] | – | – | – | – | – | – | – | – | – | – | – | – | – | – | – | 0.0039 ± 0.0006 µM | 0.0012 ± 0.0003 µM | 0.004 ± 0.0004 µM
O=C1c2ccccc2C(=O)c2c(NCCNCCO)ccc(NCCNCCO)c21 [Ametantrone, reference compound] | – | – | – | – | – | – | – | – | 0.049 ± 0.006 µM | 2.57e+08 M⁻¹ | – | – | – | – | – | – | – | –
